Tests used:
[1] = target: Ephrin type-A receptor 5 (Homo sapiens) (UniProt P54756); conditions: at 10 µM
[2] = target: Wee1-like protein kinase 2 (Homo sapiens) (UniProt P0C1S8); experiment: Selectivity interaction (KinomeScan (DiscoverX)) EUB0000229b WEE2; conditions: at 10 µM
[3] = target: T1, Tyrosine-protein kinase Mer (Homo sapiens) (UniProt Q12866); experiment: Selectivity interaction (KinomeScan (DiscoverX)) EUB0001079a MERTK; conditions: at 1 µM
T1 sequence (whole entry): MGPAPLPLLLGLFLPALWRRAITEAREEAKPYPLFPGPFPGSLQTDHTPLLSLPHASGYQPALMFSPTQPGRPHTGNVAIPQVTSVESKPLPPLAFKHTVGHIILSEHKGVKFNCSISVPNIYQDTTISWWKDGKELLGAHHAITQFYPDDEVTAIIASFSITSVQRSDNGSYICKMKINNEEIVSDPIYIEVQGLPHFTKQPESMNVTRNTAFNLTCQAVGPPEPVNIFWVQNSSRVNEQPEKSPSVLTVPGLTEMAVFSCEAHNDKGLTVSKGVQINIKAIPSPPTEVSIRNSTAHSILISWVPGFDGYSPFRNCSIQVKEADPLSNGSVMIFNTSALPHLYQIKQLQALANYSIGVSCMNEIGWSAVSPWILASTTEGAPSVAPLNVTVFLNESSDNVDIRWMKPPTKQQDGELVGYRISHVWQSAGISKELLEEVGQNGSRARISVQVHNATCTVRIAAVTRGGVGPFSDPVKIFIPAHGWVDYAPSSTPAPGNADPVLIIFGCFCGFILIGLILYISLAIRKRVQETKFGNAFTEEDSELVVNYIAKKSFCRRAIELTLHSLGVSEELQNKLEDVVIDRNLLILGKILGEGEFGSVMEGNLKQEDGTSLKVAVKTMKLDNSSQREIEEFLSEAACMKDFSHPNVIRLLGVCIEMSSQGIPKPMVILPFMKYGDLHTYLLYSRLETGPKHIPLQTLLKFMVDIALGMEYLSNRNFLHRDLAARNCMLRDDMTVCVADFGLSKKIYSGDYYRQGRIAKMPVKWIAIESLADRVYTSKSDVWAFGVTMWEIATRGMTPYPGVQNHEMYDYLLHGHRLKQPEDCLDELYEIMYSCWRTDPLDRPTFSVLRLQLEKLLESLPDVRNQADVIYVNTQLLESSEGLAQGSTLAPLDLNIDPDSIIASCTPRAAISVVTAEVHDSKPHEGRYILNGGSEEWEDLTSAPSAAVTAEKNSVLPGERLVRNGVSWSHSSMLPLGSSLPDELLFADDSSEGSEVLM

[4] = target: T2, cGMP-dependent protein kinase 1 (Homo sapiens) (UniProt Q13976); experiment: Selectivity interaction (KinomeScan (DiscoverX)) EUB0000666a PRKG1; conditions: at 10 µM
T2 sequence (whole entry): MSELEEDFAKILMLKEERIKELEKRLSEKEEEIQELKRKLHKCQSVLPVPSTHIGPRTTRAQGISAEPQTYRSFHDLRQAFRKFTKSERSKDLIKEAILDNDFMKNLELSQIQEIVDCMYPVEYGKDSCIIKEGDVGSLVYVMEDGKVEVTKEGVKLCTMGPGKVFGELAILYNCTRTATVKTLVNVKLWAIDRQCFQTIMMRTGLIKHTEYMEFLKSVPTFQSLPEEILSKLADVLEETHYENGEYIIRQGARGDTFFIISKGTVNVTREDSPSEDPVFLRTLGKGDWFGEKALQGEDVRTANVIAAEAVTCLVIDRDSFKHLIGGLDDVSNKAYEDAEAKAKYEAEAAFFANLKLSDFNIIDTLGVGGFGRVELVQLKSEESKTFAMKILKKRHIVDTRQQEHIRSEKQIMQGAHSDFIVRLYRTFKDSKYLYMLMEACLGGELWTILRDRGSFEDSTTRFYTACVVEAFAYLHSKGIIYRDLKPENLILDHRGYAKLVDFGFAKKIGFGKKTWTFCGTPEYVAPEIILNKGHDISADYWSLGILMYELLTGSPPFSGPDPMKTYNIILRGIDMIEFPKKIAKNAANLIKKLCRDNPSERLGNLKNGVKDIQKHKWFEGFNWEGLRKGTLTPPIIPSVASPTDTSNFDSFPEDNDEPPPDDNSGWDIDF

[5] = target: Ribosomal protein S6 kinase alpha-3 (Homo sapiens, UniProt P51812); conditions: at 10 µM
Focal adhesion kinase 1 = Focal adhesion kinase 1 (Homo sapiens, UniProt Q05397); experiment: Selectivity interaction (Kinase panel (Invitrogen)) EUB0000639a PTK2; conditions: at 200 nM
[6] = target: TGF-beta receptor type-2 (Homo sapiens) (UniProt P37173); experiment: Selectivity interaction (KinomeScan (DiscoverX)) EUB0001049a TGFBR2; conditions: at 1 µM
[7] = target: Cyclin-dependent kinase 9 (Homo sapiens, UniProt P50750); experiment: Selectivity interaction (ActivX KiNativ screen (ex vivo kinase selectivity in human PBMCs)) EUB0001619a CDK9; type: cell-based; conditions: PBMC, at 1 µM
[8] = target: T3, Dual specificity mitogen-activated protein kinase kinase 4 (Homo sapiens) (UniProt P45985); experiment: Selectivity interaction (ActivX KiNativ screen (ex vivo kinase selectivity in human PBMCs)) EUB0001619a MAP2K4; type: cell-based; conditions: PBMC, at 1 µM
T3 sequence (whole entry): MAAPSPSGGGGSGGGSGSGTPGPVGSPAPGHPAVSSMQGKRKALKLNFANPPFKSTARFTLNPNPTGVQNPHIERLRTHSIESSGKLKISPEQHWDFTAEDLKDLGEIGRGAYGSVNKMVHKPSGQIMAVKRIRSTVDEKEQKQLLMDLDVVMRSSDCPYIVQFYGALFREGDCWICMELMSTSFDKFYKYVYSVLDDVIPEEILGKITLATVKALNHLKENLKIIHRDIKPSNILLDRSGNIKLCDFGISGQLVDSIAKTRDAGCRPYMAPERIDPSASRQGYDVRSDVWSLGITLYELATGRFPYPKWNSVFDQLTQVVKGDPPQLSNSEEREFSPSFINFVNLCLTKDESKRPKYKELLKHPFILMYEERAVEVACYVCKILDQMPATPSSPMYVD

Chain of Wee1-like protein kinase 2 (Homo sapiens) (P0C1S8 whole entry, looked up): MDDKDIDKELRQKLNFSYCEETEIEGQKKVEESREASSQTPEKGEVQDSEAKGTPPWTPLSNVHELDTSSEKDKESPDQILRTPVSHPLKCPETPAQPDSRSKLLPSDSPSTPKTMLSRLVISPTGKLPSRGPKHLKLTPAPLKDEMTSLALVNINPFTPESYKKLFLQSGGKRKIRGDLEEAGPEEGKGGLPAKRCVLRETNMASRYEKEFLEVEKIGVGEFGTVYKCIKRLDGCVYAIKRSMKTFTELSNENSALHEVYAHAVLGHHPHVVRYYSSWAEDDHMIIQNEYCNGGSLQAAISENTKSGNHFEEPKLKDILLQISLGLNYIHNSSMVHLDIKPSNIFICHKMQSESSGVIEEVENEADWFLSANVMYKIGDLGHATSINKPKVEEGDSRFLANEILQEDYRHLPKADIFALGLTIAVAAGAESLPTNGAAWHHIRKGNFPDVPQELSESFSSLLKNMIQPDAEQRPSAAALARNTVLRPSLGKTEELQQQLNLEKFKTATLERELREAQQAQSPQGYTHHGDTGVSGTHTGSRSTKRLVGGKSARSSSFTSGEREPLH
Chain of Ephrin type-A receptor 5 (Homo sapiens) (P54756 whole entry): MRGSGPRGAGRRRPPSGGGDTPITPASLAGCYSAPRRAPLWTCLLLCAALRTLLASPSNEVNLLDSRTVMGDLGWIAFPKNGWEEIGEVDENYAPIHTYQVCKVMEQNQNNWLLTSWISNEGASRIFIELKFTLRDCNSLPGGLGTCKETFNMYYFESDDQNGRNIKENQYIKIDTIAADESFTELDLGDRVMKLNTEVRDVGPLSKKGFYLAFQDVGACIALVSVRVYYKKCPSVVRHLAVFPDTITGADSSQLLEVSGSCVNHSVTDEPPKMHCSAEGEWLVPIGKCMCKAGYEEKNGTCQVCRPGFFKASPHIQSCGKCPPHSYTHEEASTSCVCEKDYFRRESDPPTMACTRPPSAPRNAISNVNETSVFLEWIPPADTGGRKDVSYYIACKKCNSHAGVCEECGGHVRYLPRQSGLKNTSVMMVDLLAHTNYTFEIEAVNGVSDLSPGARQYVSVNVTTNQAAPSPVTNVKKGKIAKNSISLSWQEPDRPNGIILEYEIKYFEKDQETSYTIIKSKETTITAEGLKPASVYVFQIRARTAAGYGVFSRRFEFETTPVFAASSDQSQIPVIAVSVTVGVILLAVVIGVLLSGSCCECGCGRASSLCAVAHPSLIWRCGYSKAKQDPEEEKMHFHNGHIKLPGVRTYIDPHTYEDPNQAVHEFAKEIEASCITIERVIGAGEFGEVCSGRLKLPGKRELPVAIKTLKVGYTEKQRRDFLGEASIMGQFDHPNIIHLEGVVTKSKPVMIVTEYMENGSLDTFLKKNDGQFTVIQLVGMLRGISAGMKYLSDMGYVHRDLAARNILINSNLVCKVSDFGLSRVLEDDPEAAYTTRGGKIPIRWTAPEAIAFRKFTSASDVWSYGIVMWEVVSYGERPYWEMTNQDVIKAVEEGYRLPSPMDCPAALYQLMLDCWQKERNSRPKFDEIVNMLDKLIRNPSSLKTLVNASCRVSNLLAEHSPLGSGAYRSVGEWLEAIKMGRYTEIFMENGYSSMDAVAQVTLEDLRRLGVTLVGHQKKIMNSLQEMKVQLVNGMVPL
Chain of Ribosomal protein S6 kinase alpha-3 (P51812 whole entry): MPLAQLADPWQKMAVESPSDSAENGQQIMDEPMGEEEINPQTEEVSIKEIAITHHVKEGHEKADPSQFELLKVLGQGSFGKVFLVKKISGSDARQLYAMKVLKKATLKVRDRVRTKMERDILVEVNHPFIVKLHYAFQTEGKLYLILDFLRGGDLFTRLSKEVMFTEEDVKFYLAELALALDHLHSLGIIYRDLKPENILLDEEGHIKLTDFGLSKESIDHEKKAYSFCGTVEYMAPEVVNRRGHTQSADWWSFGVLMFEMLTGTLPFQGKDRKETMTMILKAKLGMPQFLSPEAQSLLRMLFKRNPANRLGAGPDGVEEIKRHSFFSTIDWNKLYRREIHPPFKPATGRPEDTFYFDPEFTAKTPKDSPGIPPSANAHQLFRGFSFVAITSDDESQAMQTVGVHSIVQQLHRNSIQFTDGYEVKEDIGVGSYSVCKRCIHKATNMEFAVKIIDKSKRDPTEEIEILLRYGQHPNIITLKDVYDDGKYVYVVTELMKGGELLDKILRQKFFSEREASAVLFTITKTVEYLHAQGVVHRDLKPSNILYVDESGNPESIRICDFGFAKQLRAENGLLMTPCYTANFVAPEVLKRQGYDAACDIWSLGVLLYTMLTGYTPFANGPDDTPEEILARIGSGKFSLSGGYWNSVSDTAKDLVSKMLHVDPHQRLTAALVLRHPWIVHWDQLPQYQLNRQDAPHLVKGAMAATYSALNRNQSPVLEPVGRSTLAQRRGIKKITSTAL
Chain of Focal adhesion kinase 1 (Q05397 2-1052 limits assumed): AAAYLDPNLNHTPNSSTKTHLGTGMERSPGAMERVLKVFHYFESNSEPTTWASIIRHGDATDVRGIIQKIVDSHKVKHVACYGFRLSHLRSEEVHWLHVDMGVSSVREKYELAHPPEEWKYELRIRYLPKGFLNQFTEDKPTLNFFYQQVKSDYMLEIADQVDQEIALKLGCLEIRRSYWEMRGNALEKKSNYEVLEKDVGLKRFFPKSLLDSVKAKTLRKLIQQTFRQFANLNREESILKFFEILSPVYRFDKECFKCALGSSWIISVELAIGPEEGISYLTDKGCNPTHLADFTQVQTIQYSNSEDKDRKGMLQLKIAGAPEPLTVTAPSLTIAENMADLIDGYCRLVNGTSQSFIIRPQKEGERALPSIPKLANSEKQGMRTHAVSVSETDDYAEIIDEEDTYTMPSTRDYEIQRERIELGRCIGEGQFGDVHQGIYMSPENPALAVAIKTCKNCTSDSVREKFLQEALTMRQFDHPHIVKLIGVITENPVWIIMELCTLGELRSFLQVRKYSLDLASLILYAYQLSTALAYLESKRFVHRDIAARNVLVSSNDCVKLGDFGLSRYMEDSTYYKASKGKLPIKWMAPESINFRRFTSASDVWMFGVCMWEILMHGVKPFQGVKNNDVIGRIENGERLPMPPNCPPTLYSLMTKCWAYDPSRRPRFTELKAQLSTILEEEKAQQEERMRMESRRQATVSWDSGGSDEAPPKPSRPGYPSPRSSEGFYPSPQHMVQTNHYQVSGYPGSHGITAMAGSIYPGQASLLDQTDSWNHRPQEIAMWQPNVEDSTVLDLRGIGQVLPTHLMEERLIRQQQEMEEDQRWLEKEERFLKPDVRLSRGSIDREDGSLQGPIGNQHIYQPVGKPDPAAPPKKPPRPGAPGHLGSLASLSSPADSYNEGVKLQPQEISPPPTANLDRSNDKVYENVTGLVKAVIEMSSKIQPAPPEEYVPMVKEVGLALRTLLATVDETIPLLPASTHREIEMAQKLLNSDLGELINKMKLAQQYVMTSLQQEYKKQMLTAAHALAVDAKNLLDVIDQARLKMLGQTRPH
Chain of TGF-beta receptor type-2 (Homo sapiens) (P37173 whole entry): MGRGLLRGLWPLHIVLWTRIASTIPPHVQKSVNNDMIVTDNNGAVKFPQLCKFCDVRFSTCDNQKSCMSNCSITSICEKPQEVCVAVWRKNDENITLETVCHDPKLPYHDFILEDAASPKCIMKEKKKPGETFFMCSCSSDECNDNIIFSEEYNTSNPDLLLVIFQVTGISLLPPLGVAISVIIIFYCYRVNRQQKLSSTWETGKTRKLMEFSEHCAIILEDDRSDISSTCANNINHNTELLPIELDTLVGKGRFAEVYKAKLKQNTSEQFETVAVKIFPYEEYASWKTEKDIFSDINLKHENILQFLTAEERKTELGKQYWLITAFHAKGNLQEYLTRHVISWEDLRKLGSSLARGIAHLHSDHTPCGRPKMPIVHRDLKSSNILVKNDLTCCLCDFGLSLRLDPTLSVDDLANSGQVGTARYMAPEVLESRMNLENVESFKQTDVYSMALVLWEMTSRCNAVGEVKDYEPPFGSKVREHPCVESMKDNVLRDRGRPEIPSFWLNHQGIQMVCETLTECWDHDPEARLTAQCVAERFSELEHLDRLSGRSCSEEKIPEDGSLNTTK
Chain of Cyclin-dependent kinase 9 (P50750 whole entry): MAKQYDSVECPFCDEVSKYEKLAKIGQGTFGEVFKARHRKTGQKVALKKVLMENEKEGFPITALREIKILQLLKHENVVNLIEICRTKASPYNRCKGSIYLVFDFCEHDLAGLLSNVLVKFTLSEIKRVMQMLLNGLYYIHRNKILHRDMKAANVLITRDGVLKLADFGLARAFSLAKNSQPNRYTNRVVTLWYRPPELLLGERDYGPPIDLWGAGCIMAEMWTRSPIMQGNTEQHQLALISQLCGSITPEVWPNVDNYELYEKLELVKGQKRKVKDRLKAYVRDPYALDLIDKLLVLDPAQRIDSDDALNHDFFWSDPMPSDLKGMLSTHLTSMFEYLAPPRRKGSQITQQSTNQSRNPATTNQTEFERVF

SMILES: CCN(CC)CCCCNc1ncc2cc(-c3cc(OC)cc(OC)c3)c(NC(=O)NC(C)(C)C)nc2n1
- % of control [1]: 100%

SMILES: COc1cc(N(C)c2ccnc3ccc(C(F)(F)F)cc23)cc(OC)c1OC
- % binding [2]: 87%

SMILES: Nc1cnc(N2CCc3cc(S(=O)(=O)Nc4c(F)cc(Cl)cc4F)cc(N4CCCC4=O)c32)nc1 [TP-020n]
- % of control [3]: 100%

SMILES: O=C(NOC[C@H](O)CO)c1ccc(F)c(F)c1Nc1ccc(I)cc1F
- % of control [4]: 100%

SMILES: Cc1cc([C@@H](C)Nc2ccccc2C(=O)O)c2nc(N3CCOCC3)cc(=O)n2c1 [AZD-6482]
- % of control [5]: 91%

SMILES: CC[C@@H]1[C@H](F)C(=O)N[C@@H]1COc1nccc2cc(C(N)=O)c(OC)cc12 [ZIMLOVISERTIB]
- % of inhibition (Focal adhesion kinase 1): 3.3%

SMILES: COc1cc(Nc2nc(C)cc(-c3cnn4nc(OC)ccc34)n2)cc(C(F)(F)F)c1
- % of control [6]: 100%

SMILES: N#Cc1cccc(-c2c[nH]c3ncnc(N4CCOCC4)c23)c1
- % of inhibition [7]: 22%
- % of inhibition [8]: -17%

Source: ChEMBL document CHEMBL5465560, “Selectivity Literature for EUbOPEN Chemogenomic Library” (2024)
